Our source for the IC50 values is BindingDB's records for doi:10.1021/jm00356a028 (1983).

Bounds are passed on as bounds.

This assay can be described thus: Inhibition of HSV-1 DNA polymerase in HSV-1 C42 plaque reduction assay. (In general: Plaques are areas of infected cells; plaque reduction assays count them against a control.)
Broadly, the IC50 is the concentration that inhibits the measured activity by half. A high value points to lower potency. Consider `COP(=O)(OC)C(=O)Oc1ccc(Cl)c(Cl)c1` [3,4-dichlorophenyl dimethoxyphosphinecarboxylate oxide], for which the IC50 is more than 500 µM.
`COP(=O)(OC)C(=O)OC(C)C` [isopropyl dimethoxyphosphinecarboxylate oxide] yielded an IC50 of more than 500 µM.
With `O=C(OCC1CCCC1)P(=O)(O)O` [disodium (cyclopentylmethoxy)carbonylphosphonate] the figure was more than 500 µM; with `CCOC(=O)c1ccc(OC(=O)P(=O)(OC)OC)cc1` [4-(ethoxycarbonyl)phenyl dimethoxyphosphinecarboxylate oxide], more than 500 µM.
For the compound `CCCCOP(=O)(O)C(=O)OC` [sodium butyl methoxycarbonylphosphonate], the IC50 was more than 500 µM.
With `CCOC(=O)P(=O)(O)OCC` [sodium ethyl ethoxycarbonylphosphonate], the IC50 was more than 500 µM.
In turn, `COC(=O)P(=O)(OC(C)C)OC(C)C` [methyl diisopropoxyphosphinecarboxylate oxide] returned an IC50 of more than 500 µM.
For `O=C(OCc1ccccc1)P(=O)(O)O` [disodium (benzyloxy)carbonylphosphonate], the IC50 was more than 500 µM.
`COC(=O)P(=O)(OC)OC12CC3CC(CC(C3)C1)C2` (stereo not given) [methyl (1-adamantyloxy)(methoxy)phosphinecarboxylate oxide]: the half-inhibitory concentration (IC50) is more than 500 µM.
With `CCOP(=O)(O)C(=O)Oc1ccc(Cl)cc1` [sodium ethyl (4-chlorophenoxy)carbonylphosphonate] the figure was 500 µM; with `COP(=O)(O)C(=O)OCc1ccccc1` [sodium methyl (benzyloxy)carbonylphosphonate], more than 500 µM.
With `COc1ccc(OC(=O)P(=O)(O)O)cc1` [disodium (4-methoxyphenoxy)carbonylphosphonate] the figure was more than 500 µM; with `CC(C)OP(=O)(OC(C)C)C(=O)Oc1ccc([N+](=O)[O-])cc1` [4-nitrophenyl diisopropoxyphosphinecarboxylate oxide], more than 500 µM.
Regarding `Cc1ccc(OC(=O)P(=O)(O)O)cc1` [disodium (4-methylphenoxy)carbonylphosphonate], the IC50 was more than 500 µM.
In the case of `Cc1ccc(OP(=O)(O)C(=O)O)cc1` [disodium (4-methylphenoxy)(oxido)phosphinecarboxylate oxide] it was 87 µM; in that of `COP(=O)(OC)C(=O)Oc1ccccc1` [phenyl dimethoxyphosphinecarboxylate oxide], more than 500 µM.
With `O=C(O)P(=O)(O)Oc1ccccc1` [disodium oxido(phenoxy)phosphinecarboxylate oxide] the figure was 79 µM.
With `CC(C)OC(=O)P(=O)(O)O` [disodium isopropoxycarbonylphosphonate], the IC50 was more than 500 µM.
In the case of `COP(=O)(OC)C(=O)OC1CCCCC1` [cyclohexyl dimethoxyphosphinecarboxylate oxide] it was more than 500 µM; in that of `CCOP(=O)(Oc1ccc(OC)cc1)C(=O)Oc1ccccc1` (stereo not given) [phenyl (4-methoxyphenoxy)(ethoxy)phosphinecarboxylate oxide], 97 µM; in that of `CCCCOC(=O)P(=O)(O)O` [disodium butoxycarbonylphosphonate], more than 500 µM.
With `O=C(O)P(=O)(O)OC12CC3CC(CC(C3)C1)C2` [disodium (1-adamantyloxy)(oxido)phosphinecarboxylate oxide] the figure was more than 500 µM.
In the case of `CCOP(=O)(O)C(=O)Oc1ccc(OC)cc1` [sodium ethyl (4-methoxyphenoxy)carbonylphosphonate] it was 165 µM.
For `O=C(O)P(=O)(O)O`, inhibition was half-maximal at 74 µM (IC50). This IC50 lies about 2.2-fold lower than the previous one.
Compound `O=C(Oc1ccccc1)P(=O)(Oc1ccccc1)Oc1ccccc1` [phenyl diphenoxyphosphinecarboxylate oxide] registered an IC50 of 39 µM. This IC50 lies about 1.9-fold lower than the previous one.
Turning to `COP(=O)(O)C(=O)Oc1ccccc1` [sodium methyl phenoxycarbonylphosphonate], the IC50 is more than 500 µM.
For `O=C(Oc1ccccc1)P(=O)(O)Oc1ccccc1` [sodium phenyl phenoxycarbonylphosphonate], the IC50 amounted to 52 µM.
In the case of `O=C(Oc1ccc(Cl)cc1)P(=O)(O)O` [disodium (4-chlorophenoxy)carbonylphosphonate] it was 250 µM; in that of `CCCCOP(=O)(OCCCC)C(=O)OC` [methyl dibutoxyphosphinecarboxylate oxide], more than 500 µM; in that of `Cc1ccc(OP(=O)(Oc2ccc(C)cc2)C(=O)Oc2ccccc2)cc1` [phenyl bis(4-methylphenoxy)phosphinecarboxylate oxide], 44 µM.
With `CCOC(=O)P(=O)(O)O` [disodium ethoxycarbonylphosphonate] the figure was more than 500 µM.
With `COP(=O)(OC)C(=O)OCC1CCCC1` [cyclopentylmethyl dimethoxyphosphinecarboxylate oxide] the figure was more than 500 µM.
Regarding `O=C(OC1CCCCC1)P(=O)(O)O` [disodium (cyclohexyloxy)carbonylphosphonate], the IC50 was more than 500 µM.
In the case of `Cc1cccc(C)c1OP(=O)(O)C(=O)O` [disodium (2,6-dimethylphenoxy)(oxido)phosphinecarboxylate oxide], the IC50 was more than 500 µM.
`CCOP(=O)(Oc1ccc(C(C)=O)cc1)C(=O)OC` (stereo not given) [methyl (4-acetylphenoxy)(ethoxy)phosphinecarboxylate oxide] showed an IC50 of more than 500 µM.
`CCOC(=O)c1ccc(OC(=O)P(=O)(OCC)OCC)cc1` [4-(ethoxycarbonyl)phenyl diethoxyphosphinecarboxylate oxide]: the IC50 is more than 500 µM.
In the case of `COc1ccc(OP(=O)(O)C(=O)O)cc1` [disodium (4-methoxyphenoxy)(oxido)phosphinecarboxylate oxide] it was 90 µM; in that of `O=C(O)P(=O)(O)Oc1ccc2c(c1)CCC2` [disodium (2,3-dihydro-1H-inden-5-yloxy)(oxido)phosphinecarboxylate oxide], 73 µM.
With `Cc1ccc(OP(=O)(O)C(=O)Oc2ccccc2)cc1` [sodium 4-methylphenyl phenoxycarbonylphosphonate] the figure was 54 µM; with `O=C(Oc1ccccc1)P(=O)(O)O` [disodium phenoxycarbonylphosphonate], more than 500 µM.
`CCOP(=O)(Oc1ccc2c(c1)CCC2)C(=O)OC` (stereo not given) [methyl (2,3-dihydro-1H-inden-5-yloxy)(ethoxy)phosphinecarboxylate oxide]: the IC50 was more than 500 µM.
With `CCOP(=O)(OCC)C(=O)Oc1ccc(OC)cc1` [4-methoxyphenyl diethoxyphosphinecarboxylate oxide], the IC50 was more than 500 µM.
With `CCOP(=O)(O)C(=O)O` [disodium ethoxy(oxido)phosphinecarboxylate oxide], the IC50 was more than 500 µM.
With `COC(=O)P(=O)(OC)Oc1ccc(C(C)=O)cc1` (stereo not given) [methyl (4-acetylphenoxy)(methoxy)phosphinecarboxylate oxide] the figure was more than 500 µM.
With `COP(=O)(O)C(=O)O` [disodium methoxy(oxido)phosphinecarboxylate oxide] the figure was more than 500 µM.
In the case of `COP(=O)(OC)C(=O)OCc1ccccc1` [benzyl dimethoxyphosphinecarboxylate oxide] it was more than 500 µM.
With `COC(=O)P(=O)(O)Oc1ccc2c(c1)CCC2` [sodium 2,3-dihydro-1H-inden-5-yl methoxycarbonylphosphonate], the IC50 is more than 500 µM.
Take `CCOP(=O)(Oc1c(C)cccc1C)C(=O)OC` (stereo not given) [methyl (2,6-dimethylphenoxy)(ethoxy)phosphinecarboxylate oxide]: the IC50 was more than 500 µM.
Consider `CCCCOC(=O)P(=O)(OC)OC` [butyl dimethoxyphosphinecarboxylate oxide], for which the IC50 was more than 500 µM.
With `COC(=O)P(=O)(O)Oc1c(C)cccc1C` [sodium 2,6-dimethylphenyl methoxycarbonylphosphonate] the figure was more than 500 µM; with `CCOC(=O)P(=O)(O)Oc1ccccc1` [sodium phenyl ethoxycarbonylphosphonate], more than 500 µM; with `CCOC(=O)c1ccc(OC(=O)P(=O)(O)O)cc1` [disodium [4-(ethoxycarbonyl)phenoxy]carbonylphosphonate], more than 500 µM.
Regarding `CCOP(=O)(OCC)C(=O)Oc1ccc(Cl)cc1` [4-chlorophenyl diethoxyphosphinecarboxylate oxide], the IC50 was more than 500 µM.
Consider `COP(=O)(OC)C(=O)Oc1ccc(C)cc1` [4-methylphenyl dimethoxyphosphinecarboxylate oxide], for which the IC50 is more than 500 µM.
In the case of `COP(=O)(OC)C(=O)Oc1ccc([N+](=O)[O-])cc1` [4-nitrophenyl dimethoxyphosphinecarboxylate oxide] it was more than 500 µM.
